Assays:
human lung tryptase = experiment: Tryptase inhibition activity (fluorogenic substrate Boc-Val-Pro-Arg-MCA); assay type: biochemical; conditions: pH7.1, 30° C., 30 minutes
Protocol: Then, the tryptase inhibition activity was measured according to the method of Muramatsu et al. (Biol. Chem. Hoppe-Seyler, vol.369, pp617(1988)). That is, 62.5 μL of a solution adjusted so that the enzyme activity of human lung tryptase (manufactured by Sigma) became 7.9 μUnit with 0.1M phosphate buffer-1.5M NaCl (pH7.1), was added to 2.5 μL of a test substance dissolved in DMSO, a temperature was retained at 30° C. for 5 minutes, and 125 μL of 0.6mM Boc-Val-Pro-Arg-MCA. HCl (manufactured by BACHEM)/0.1M phosphate buffer (pH7.1) as a substrate was added to obtain a reaction solution. The reaction solution was set at a multi-well plate reader CYTOFLUOR Series 4000 (manufactured by Perceptive Biosystems), and a change in the fluorescent intensity was measured at 30° C. for 30 minutes with time (excitation wavelength 360 nm, detection wavelength 450 nm). As a control, 2.5 μL of DMSO containing no test substance was used, and treated and measured similarly. As a blank, 0.1M phosphate buffer-1.5M NaCl (pH7.1) was added in place of a tryptase solution, and treated and measured similarly.
A tryptase inhibition rate (%) was obtained by calculating a slope (S) of an approximation straight line for each test material, a slope (C) of an approximation straight line for a control, a slope (Bs) of an approximation straight line for a blank of each test substance, and a slope (Bc) of an approximation straight line for a blank of a control from a change in the fluorescent intensity, and calculating from the following equation. Inhibition rate (%)=[1−(S−Bs)/(C−Bc)]×100 Experimental Results
(§1) Regarding the compounds of the present invention, each 50% inhibition concentration (IC50) was calculated from the chymase and tryptase inhibition activity obtained by the aforementioned method.

[1] = biological target: T1, recombinant human chymase (Homo sapiens, UniProt P23946); experiment: Chymase inhibition activity (fluorogenic substrate Suc-Ala-Ala-Pro-Phe-MCA); assay type: biochemical; conditions: 30° C., 30 minutes
T1 sequence (P23946 22-247): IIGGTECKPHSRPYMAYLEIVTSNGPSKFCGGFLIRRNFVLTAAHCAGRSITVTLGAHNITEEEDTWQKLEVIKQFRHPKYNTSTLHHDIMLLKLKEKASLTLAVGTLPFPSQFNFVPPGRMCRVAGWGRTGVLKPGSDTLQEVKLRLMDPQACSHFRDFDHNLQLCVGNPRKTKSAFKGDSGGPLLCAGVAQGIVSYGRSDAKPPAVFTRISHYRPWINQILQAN
Protocol: The chymase inhibition activity was measured according to the method of Kato et al. (J. Biochem., Vol.103, pp820(1988)). That is, 72.5 μL of a solution adjusted so that the enzyme activity of recombinant human chymase (JP-A No.10-87567) became 2.3 μUnit with HEPES buffer, was added to 2.5 μL of a test substance dissolved in dimethyl sulfoxide (DMSO), a temperature was retained at 30° C. for 5 minutes, and 125 μL of 0.6 mM Suc-Ala-Ala-Pro-Phe-MCA (manufactured by Peptide Institute Inc.)/Tris buffer as a substrate was added to obtain a reaction solution. The reaction solution was set at a multi-well plate reader CYTOFLUOR Series 4000 (manufactured by Perceptive Biosystems), and a change in the fluorescent intensity was measured at 30° C. for 30 minutes with time (excitation wavelength 360 nm, detection wavelength 450 nm).
As a control, 2.5 μL of DMSO containing no test substance was used, and this was treated and measured similarly. As a blank, a Tris hydrochloric acid buffer was added instead of a chymase solution, and treated and measured similarly.
The chymase inhibition rate (%) was obtained by calculating a slope (S) of an approximation straight line for each test substance, a slope (C) of an approximation straight line for a control, a slope (Bs) of an approximation straight line for a blank of each test substance, and a slope (Bc) of approximation straight line for a blank of a control from a change in the fluorescent intensity, and calculating from the following equation. Inhibition rate (%)=[1−(S−Bs)/(C−Bc)]×100
as §1

[2] = system: rat mast cells (intraperitoneal cell suspension, PEC); experiment: Rat mast cell histamine release inhibition test; assay type: cell-based; conditions: for Inhibition rate (%) of release of histamine from mast cells: phosphatidylserine and concanavalin A stimulated
Protocol: A rat was killed by exsanguinations under ether anesthesia, and 30 mL of a buffer for mast cells (150 mM NaCl, 3.7 mM KCl, 3.0 mM Na2HPO4, 1 mM CaCl2, 5.6 mM glucose) was injected intraperitoneally. An abdominal part was massaged for 90 seconds, and a suspension of intraperitoneal cell was taken. A suspension of an intraperitoneal cell collected from 5 animals was centrifuged at 100 G at 4° C. for 5 minutes, a buffer for mast cells was added, washed three times and, finally, adjusted so that the number of mast cells became 3 to 5×10^5 cells/mL (hereinafter, this solution is abbreviated as PEC).
Compound 5 was dissolved in DMSO to prepare a test drug solution at each concentration (final DMSO concentration 0.8%). 100 μL of the test drug solution was added to 400 μL of the prepared PEC, and pre-incubated at 37° C. for 15 minutes. After pre-incubation, each 50 μL of a solution of phosphatidylserine (10 μg/ml) and concanavalin A(15 μg/ml) which is a histamine-releasing substance was added, and further incubated for 20 minutes. 1.4 mL of an ice-cooled buffer for mast cells was added to stop the reaction, and centrifuged at 250 G at 4° C. for 10 minutes. An amount of the histamine supernatant was quantitated using a fluorescent method. That is, 20 μL of 1N NaOH was added to 40 μL of the supernatant, 20 μL of a 1% o-phthalaldehyde solution in methanol was further added, and allowed to stand at room temperature for 5 minutes. Thereafter, 20 μL of 3N hydrochloric acid was added, and the fluorescent intensity was measured at an excitation wavelength of 350 nm and a fluorescent wavelength of 450 nm to obtain an amount of histamine.
A histamine release inhibition rate (%) was calculated from the following equation: Inhibition rate (%)=[1−(S−B)/(C−B)]×100 • S: amount of histamine in the supernatant, C: amount of histamine in control, B: amount of histamine in blank Test Results

| Molecule | IC50 (human lung tryptase) | IC50 [1] | other results |
| --- | --- | --- | --- |
| O=C1NC(c2ccccc2)(c2ccccc2)C(=O)N1C(=O)c1ccc2ccccc2c1 [Compound 1, 3-(2-Naphthylcarbonyl)-5,5-diphenylimidazolidine-2,4-dione] | 390 nM | 66 nM |  |
| 3-Naphthylcarbonyl-2,4-dioxo-5,5-diphenylimidazolidinylacetic acid [Compound 5] | 970 nM | 1200 nM | Inhibition of release of histamine (in words) ([2]; 8 to 100 μM): inhibited release of histamine concentration-dependently; Inhibition rate (%) of release of histamine from mast cells ([2]; test drug concentration 8 μM): 28%; Inhibition rate (%) of release of histamine from mast cells ([2]; test drug concentration 40 μM): 59%; Inhibition rate (%) of release of histamine from mast cells ([2]; test drug concentration 80 μM): 78%; Inhibition rate (%) of release of histamine from mast cells ([2]; test drug concentration 100 μM): 83% |
| 5,5-Dimethyl-3-naphthylcarbonyl-1-(2-oxo-2-phenylethyl)imidazolidine-2,4-dione [Compound 30] | 7200 nM | 3300 nM |  |
| 1-(3-Chlorobenzyl)-5,5-dimethyl-3-naphthylcarbonylimidazolidine-2,4-dione [Compound 28] | 2200 nM | 2200 nM |  |
| 4-(5,5-Dimethyl-3-naphthylcarbonyl-2,4-dioxoimidazolidinylmethyl)benzonitrile [Compound 27] | 7100 nM | 540 nM |  |
| 3-Naphthylcarbonyl-1,3-diazaspiro[4.5]decane-2,4-dione [Compound 34] | 280 nM | 32000 nM |  |
| 5,5- Dimethyl-3-naphthylcarbonylimidazolidine-2,4-dione [Compound 8] | 3200 nM | 30000 nM |  |
| 5-Methyl-3-naphthylcarbonyl-2,4-dioxo-5-phenylimidazolidinylacetic acid [Compound 16] | 1800 nM | 910 nM |  |
| 3-Naphthylcarbonyl-5,5-diphenylimidazolidine-2,4-dione [Compound 2] | 46 nM | 340 nM |  |
| 5,5-Dimethyl-1,3-bisnaphthylcarbonyl imidazolidine-2,4-dione [Compound 33] | 1500 nM | 1800 nM |  |
| 1-Methyl-3-naphthylcarbonyl-5,5-diphenylimidazolidine-2,4-dione [Compound 22] | 89 nM | 3500 nM |  |
| tert-Butyl (5-methyl-3-naphthylcarbonyl-2,4-dioxo-5-phenylimidazolidinyl)acetate [Compound 14] | 1600 nM | 260 nM |  |
| CC1(c2ccccc2)C(=O)N(C(=O)c2cccc3ccccc23)C(=O)N1Cc1cccc(Cl)c1 (centres unmarked) [Compound 25, 1-(3-Chlorobenzyl)-5-methyl-3-naphthylcarbonyl-5-phenylimidazolidine-2,4-dione] | 86000 nM | 580 nM |  |
| CC1(c2ccccc2)NC(=O)N(C(=O)c2cccc3ccccc23)C1=O (centres unmarked) [Compound 7] | 370 nM | 6500 nM |  |
| 1-Isobutyl-3-naphthylcarbonyl-5,5-diphenylimidazolidine -2,4-dione [Compound 23] | 4400 nM | 280 nM |  |
| Ethyl 2-(3-naphthylcarbonyl-2,4-dioxo-5,5-diphenylimidazolidinyl)acetate [Compound 3] | 930 nM | 1000 nM |  |
| 5,5-Dimethyl-3-naphthylcarbonyl-1,3-oxazolidine-2,4-dione [Compound 9] | 1000 nM | 730 nM |  |
| Tert-butyl (5,5-dimethyl-3-naphthylcarbonyl-2,4-dioxoimidazolidinyl)acetate [Compound 13] | 1600 nM | 2700 nM |  |
